# Literature values, collected in PMC5845353, “The selective cathepsin K inhibitor MIV-711 attenuates joint pathology in experimental animal models of osteoarthritis” (Journal of Translational Medicine, 2018).
# Test system: HP-1
# Design: method as in PMID 22484689
# Conditions: ACLT rabbits; cited from earlier work
smiles,measurement,value
CN1CCN(c2nc(-c3ccc(C(=O)NC4(C(=O)NCC#N)CCCCC4)cc3)cs2)CC1 [L-006235],reduction of HP-1 at dose sufficient for protection of bone loss,60%
